Data as given in patent publication US8268961B2, “Antibacterial peptides and analogues thereof” (Universita Degli Studi di Siena, priority 2004, dated 2012).
In brackets after ≈: the same amount, converted by molar mass. Where two headings read alike, the source gives them in different places. Positions of bridges follow the written chain, without caps; N, C: chain ends. Residues, ends and D or L forms follow the SMILES beside them. Chains are numbered I, II in the order given. No end group written: not given here.

Legend:
human erythrocytes = assay: Haemolysis, Parpart erythrocyte osmotic resistance assay; assay type: cell-based; conditions: 19 hours incubation, 125 μg/ml
Description: The haemolytic activity of M5 and M6 was also evaluated and is represented FIG. 9. Haemolysis of fresh human erythrocytes was determined at peptide concentrations ranging from 1 to 125 μg/ml. […] By contrast, after 19 hours of incubation, the haemolysis induced by M6 and M5 at 125 μg/ml is 7% and 19%, respectively. The percentage of haemolysis of untreated blood after 19 hours (control) is very limited (<1%).
The haemolytic activity of the KIRVRLSA [SEQ ID NO: 3] (M5) and […] [SEQ ID NO: 4] (M6) peptides was evaluated by the Parpart erythrocyte osmotic resistance assay in NaCl. The percentage of haemolysis was calculated by means of a calibration curve obtained incubating the erythrocytes with increasing concentrations of NaCl and measuring the absorbance increase, due to haemolysis, at 540 nm. 0.9% NaCl solutions containing the MAP peptides at different concentrations were then prepared, whereto was added human blood in the ratio of 1:100 (v/v). The samples were left at ambient temperature for 30 min and 19 hours; subsequently, a portion was drawn for each incubation, centrifuged at 1500 rpm for 5 min and the absorbance of the super was measured with the spectrophotometer at 540 nm.

P. aeruginosa ATCC 27853 = assay: Minimal bactericidal concentration (MBC); assay type: cell-based
Description: (§1) Reference strains (Escherichia coli ATCC 25922, Pseudomonas aeruginosa ATCC 27853, Staphylococus aureus ATCC 25923 and Chryseobacterium meningosepticum CCUG 4310) and several recent clinical isolates (including multidrug-resistant ones) of various species (Table 2) were used for conventional susceptibility testing experiments. Minimum Inhibitory Concentration (MIC) was determined by a standard microdilution assay as recommended by the National Commitee for Clinical Laboratory Standards (NCCLS) using cation-supplemented Mueller-Hinton (MH) broth (Oxoid Ltd. Basingstoke, UK) and a bacterial inoculum of 5×10^4 CFU per well, in a final volume of 100 μl. Results were recorded by visual inspection after 24 h of incubation at 37° C.
(§2) The MBC was determined as recommended by the National Committee for Clinical Laboratory Standards (NCCLS) on strains of E. coli ATCC 25922 and P. aeruginosa ATCC 27853.

E. coli ATCC 25922 = assay: Minimal bactericidal concentration (MBC); assay type: cell-based
Description: as §1, §2

[1] = test system: Pseudomonas aeruginosa 891; assay type: cell-based; conditions: Pseudomonas aeruginosa 891, FQR AGR ESCR CPR (MBL/VIM-2)
Source text: (§3) MIC is defined as the lowest concentration, in an antibiotic dilution range, that inhibits visible bacterial growth. The importance of MIC sensitivity test is based on the principle that in vitro sensitivity provides a predictive indication of the in vivo efficacy of the antibiotic therapy. Values are expressed as molar concentration and compared to MIC values obtained with commercially available antibiotics such as amikacin, ceftriaxone and levofloxacin (Table 3).
as §1

[2] = test system: Pseudomonas aeruginosa ATCC27853; assay type: cell-based; conditions: Pseudomonas aeruginosa ATCC27853, reference strain
Source text: as §3, §1

[3] = test system: Escherichia coli W99FI0077; assay type: cell-based; conditions: Escherichia coli W99FI0077, FQR ESCR (ESBL/SHV type)
Source text: as §3, §1

[4] = test system: Escherichia coli ATCC 25922; assay type: cell-based; conditions: Escherichia coli ATCC 25922, reference strain
Source text: as §3, §1

[5] = test system: Klebsiella pneumoniae W99FI0057; assay type: cell-based; conditions: Klebsiella pneumoniae W99FI0057, ESCR (ESBL/SHV type)
Source text: as §3, §1

[6] = test system: Staphylococcus aureus ATCC 25923; assay type: cell-based; conditions: Staphylococcus aureus ATCC 25923, reference strain
Source text: as §3, §1

[7] = test system: Pseudomonas aeruginosa 885149; assay type: cell-based; conditions: Pseudomonas aeruginosa 885149, FQR AGR ESCR CPR (MBL/IMP-13)
Source text: as §3, §1

[8] = test system: murine macrophage cells J774 A.1; assay: Cytotoxicity test by MTT; assay type: cell-based, mouse
Description: (§4) The cytotoxicity of antibacterial MAP peptides was evaluated on different eukaryotic cell lines by a colorimetric assay (MTT). This assay measures the cells' ability to convert a soluble tetrazolium salt into an insoluble precipitate: formazan. The cytotoxicity of M1 was evaluated on murine macrophagic cells (J774 A.1), murine myeloma cells (SPO) and Chinese hamster ovary epithelium cells (CHO K1). As shown FIG. 4, even at high concentrations (1 mg/ml) M1 cytotoxicity on CHO K1 cells and on SPO cells is low (percent survival is 80-90%).
(§5) For cytotoxicity tests, different cell lines were used: murine myeloma cells SPO, hamster ovary epithelium cells CHO K 1, murine macrophage cells J774 A.1 and human keratinocytes HaCaT. The cells were plated in medium in RPMI 1640 (SPO and CHO K 1) and DMEM (J774 A.1 and HaCaT) with antibiotics and bovine foetal serum at 10%, in 96-well plates at the concentration of 6×10^4 (SPO, CHO K1 and J774 A.1) and 3×10^4 (HaCaT). Peptides, previously filtered with a 0.2 μm filter disk (Whatman), were added at various concentrations to the different cell lines and left in incubation over night at 37° C. Cell viability was determined adding the MTT tetrazolium salt at the concentration of 0.5 mg/ml and incubating for 90 min. The cells were solubilised with a solution at pH 4.5 containing SDS 10% and dimethylformamide 45% and read at the dual wavelength of 595/650 nm with a plate reader.

E. coli strain TG1 [9] = assay: Test of antibacterial activity (colony growth inhibition) on E. coli strain TG1; assay type: cell-based; conditions: for Antibacterial activity on E. coli TG1 colony growth: E. coli TG1, colony counting vs control without peptide
Description: The antimicrobic activity of the peptides in linear form (L1, L4, L5, L6) and in MAP form (M1, M4, M5, M6) was assayed on the TG1 strain of E. coli. The peptides were incubated at various concentrations (2-1-0.5-0.25-0.12 mg/ml) with cells of E. coli (OD600=0.2) for about 1 hour at 37° C. Subsequently, the cells were plated on agar at dilution such to allow counting of individual colonies. The antimicrobic activity of the synthesised peptide L 1 and M1 is shown FIG. 1 and is compared to a non correlated MAP peptide (MNC) used as negative control.
In one example, the tetrabranched MAP peptides with the amino acid sequence: QAKIRVRLSA [SEQ ID NO: 2], KIRVRLSA [SEQ ID NO: 3], QKKIRVRLSA [SEQ ID NO: 4] are used individually in a bacterial colony growth inhibition test. The test is conducted by incubating different concentrations of MAP peptides with E. coli (strain TG1) and plating bacterial cells on agar at a dilution such to allow for individual colonies counting. The following day, the number of colonies grown after treatment with the three MAP peptides is compared.
Antimicrobic tests were conducted incubating for 75 min at 37° C., 25 μL of E. coli at the OD600 of 0.2 with 25 μl of MAP peptide dissolved in PBS at the various concentrations. The different incubations were further diluted 1:1000 in 2×TY medium and 100 μl were plated on solid 2×TY medium. The plates were left overnight at 30° C. and the individual grown colonies were counted and compared with a control, not treated with MAP peptide.

[10] = test system: human keratinocytes HaCaT; assay: Cytotoxicity test by MTT; assay type: cell-based; conditions: up to 1 mg/ml
Description: as §5

[11] = test system: Pichia pastoris yeast strain X33; assay: Effect on Pichia pastoris yeast colonies; assay type: cell-based; conditions: Pichia pastoris X33, data not shown
Description: To a volume of 50 μl of culture of Pichia pastoris grown 24 hour at 30° C. in YPD (Yeast Extract/Peptone/Dextrose) medium, 50 μl of MAP peptides (2 mg/ml) were added and left in incubation 150 min at 37° C. Subsequently, 50 μl of each incubation were plated on YPD solid medium and it was allowed to grow for 48 hours at 30° C. The number of colonies grown was compared with a control, where the yeast was not treated with the MAP.

[12] = test system: Staphylococus aureus MIU-68A; assay type: cell-based, Staphylococcus aureus; conditions: Staphylococus aureus MIU-68A, meticillin-susceptible
Source text: as §3, §1

in vitro = assay type: cell-based
Description: as §4
as §5, with “Peptides, previously filtered with a 0.2 μm filter disk (Whatman), were added at various concentrations to the different cell lines and left in incubation over night at 37° C.” left out

[13] = Stability to plasmatic protease (HPLC); assay type: in vitro ADME, human
Description: Since the use of peptides as therapeutic agents is severely limited by their in vivo half-life, the stability to human serum protease of the linear peptide L1 and of the MAP peptides M1, M4, M5 and M6 was evaluated. The peptides were incubated at the concentration of 10 mM with plasma and with human serum for 2 and 24 hours; the samples were subsequently analysed in HPLC on column C18 (see materials and methods) to evaluate the presence of linear and MAP peptide not digested by the protease.
The various peptides in MAP form and the linear peptide (L1) were dissolved in H2O at the concentration of 10 mM and incubated with 10 μl of plasma and human serum for 2 and 24 hours at 37° C. To each sample were added 150 μl of methanol to block the proteolytic reaction; each sample was then centrifuged at 13,000 rpm for 2 min and to the supernatant were added 0.75 ml of 0.1% trifluoroacetic acid. The samples were analysed in reverse phase HPLC on a Vydac C18 semi-preparative column using a 30 min gradient of buffer B from 20% to 95% (buffer A: 0.1% trifluoroacetic acid/water; buffer B: 0.1% trifluoroacetic acid/methanol), to evaluate the presence of linear and MAP peptide after the proteolytic treatment.

Cytotoxicity test by MTT = assay type: cell-based, mouse; conditions: mouse, J774 A.1 murine macrophage cells
Description: as §4, §5

E. coli strain TG1 [14] = assay: Stability of peptide in solution (time course of antibacterial activity); assay type: physicochemical; conditions: PBS 0.5 mg/ml, 1, 48 and 72 hours
Description: FIG. 6. Stability of M1 peptide in solution. Time course of antibacterial activity of M1 on E. coli strain TG1. MAP M1 peptide was dissolved in PBS at a concentration of 0.5 mg/ml and bactericide activity was measured 1, 48 and 72 hours after re-suspension in PBS.
FIG. 8. Stability of M4, M5 and M6 peptides in solution. Time course of antibacterial activity of M4, M5 and M6 on E. coli strain TG1. M4, M5 and M6 peptides were dissolved in PBS at a concentration of 0.5 mg/ml and bactericide activity was measured 1, 48 and 144 hours after re-suspension in PBS.

Compound: CC[C@H](C)[C@H](NC(=O)[C@@H](N)CCCCN)C(=O)N[C@@H](CCCNC(=N)N)C(=O)N[C@H](C(=O)N[C@@H](CCCNC(=N)N)C(=O)N[C@@H](CC(C)C)C(=O)N[C@@H](CO)C(=O)N[C@@H](C)C(=O)NCCCC[C@H](NC(=O)[C@H](C)NC(=O)[C@H](CO)NC(=O)[C@H](CC(C)C)NC(=O)[C@H](CCCNC(=N)N)NC(=O)[C@@H](NC(=O)[C@H](CCCNC(=N)N)NC(=O)[C@@H](NC(=O)[C@@H](N)CCCCN)[C@@H](C)CC)C(C)C)C(=O)NCCCC[C@H](NC(=O)[C@H](CCCCNC(=O)[C@H](C)NC(=O)[C@H](CO)NC(=O)[C@H](CC(C)C)NC(=O)[C@H](CCCNC(=N)N)NC(=O)[C@@H](NC(=O)[C@H](CCCNC(=N)N)NC(=O)[C@@H](NC(=O)[C@@H](N)CCCCN)[C@@H](C)CC)C(C)C)NC(=O)[C@H](C)NC(=O)[C@H](CO)NC(=O)[C@H](CC(C)C)NC(=O)[C@H](CCCNC(=N)N)NC(=O)[C@@H](NC(=O)[C@H](CCCNC(=N)N)NC(=O)[C@@H](NC(=O)[C@@H](N)CCCCN)[C@@H](C)CC)C(C)C)C(=O)N[C@@H](C)C(=O)O)C(C)C [M5, KIRVRLSA] (I: H-KIRVRLSAKKA-OH / II: H-KIRVRLSAK / III: H-KIRVRLSA / IV: H-KIRVRLSA; amide I:9-IV:C, I:10-II:C, II:9-III:C; N-terminus assumed)
- haemolysis of human erythrocytes (human erythrocytes): 19%
- MBC (minimal concentration able to kill 99.9% of the inoculum) compared with MIC (P. aeruginosa ATCC 27853): equal to the calculated values of MIC
- MBC (minimal concentration able to kill 99.9% of the inoculum) compared with MIC (P. aeruginosa ATCC 27853; listed as KIRVRLSA): equal to the corresponding MIC values
- MBC (minimal concentration able to kill 99.9% of the inoculum) compared with MIC (E. coli ATCC 25922): equal to the calculated values of MIC
- MBC (minimal concentration able to kill 99.9% of the inoculum) compared with MIC (E. coli ATCC 25922; listed as KIRVRLSA): equal to the corresponding MIC values
- MIC (Molarity) [1]: 3.8 µM (≈ 15.8 µg/mL)
- MIC (Molarity) [2]: 3.8 µM (≈ 15.8 µg/mL)
- MIC (Molarity) [3]: 31 µM (≈ 129 µg/mL)
- MIC (Molarity) [4]: 3.8 µM (≈ 15.8 µg/mL)
- MIC (Molarity) [5]: >31 µM
- MIC (Molarity) [6]: 3.1e-05 M (≈ 129 µg/mL)
- MIC (Molarity) ([6]; listed as KIRVRLSA): ~10^−5 M
- MIC (Molarity) [7]: 7.6 µM (≈ 31.7 µg/mL)
- Effect on cell viability (MTT) ([8]; J774.A1, overnight, 30 μg/ml): did not substantially affect cell viability
- Vitality of J774 A.1 cells as the concentration of MAP peptides increases (MTT) ([8]; J774 A.1): decreases
- Antibacterial activity on E. coli TG1 colony growth (E. coli strain TG1 [9]): good antibacterial activity
- Toxicity for human keratinocyte HaCaT cells (MTT) [10]: low toxicity
- Toxicity for human keratinocyte HaCaT cells (MTT) ([10]; listed as KIRVRLSA): particularly resistant
- Number of yeast colonies vs negative control [11]: did not differ from the negative control
- MIC (Molarity) [12]: 31 µM (≈ 129 µg/mL)

Compound: I: QEKIRVRLSAKKA-OH / II: QEKIRVRLSAK / III: QEKIRVRLSA / IV: QEKIRVRLSA (amide I:11-IV:C, I:12-II:C, II:11-III:C) [M1]
- viability at 1000 µg/mL (in vitro; CHO K1 cells (Chinese hamster ovary epithelium)): 80 to 90%
- viability at 1000 µg/mL (in vitro; mouse, SPO murine myeloma cells): 80 to 90%
- Resistance to plasmatic protease: Plasma 2 h [13]: +
- viability at 1000 µg/mL (Cytotoxicity test by MTT): ~50%
- Concentration down to which TG1 E. coli colony growth is prevented (E. coli strain TG1 [9]; E. coli TG1, MAP form): less effective
- Antibacterial activity on E. coli TG1 colony growth (E. coli strain TG1 [9]): inhibited significantly
- Stability in solution: antibacterial activity over time after resuspension (E. coli strain TG1 [14]): drop in activity over time
